# In patent US7674789B2, “Compounds” (Glaxo Group Limited, priority 2005, dated 2010):
# “Also recorded” adds a separate entry of the source.
# System: influx of neutrophils to the lung in LPS-challenged rats
# Experiment: Rat LPS neutrophilia model
# Assay type: in vivo
# Conditions: intratracheal compound 15 min-24 hours before LPS aerosol (100 ug/ml, 15 min), lavage 4 hours later, in at least one of the range of conditions tested
# Procedure: Rat LPS Neutrophilia Model
# The effect of compounds on the influx of neutrophils to the lung in LPS-challenged rats is evaluated as follows. The test compound is suspended in one of the following solutions: 0.5% tween 80/PBS, 0.5% tween 80/saline, 10% EtOH/saline (with pH adjusted to 2.0, or 8.0 with HCl, or unadjusted), Saline @ pH 2.0, 6.5 or 8.0, 0.5% Tragacanth, 1% DMSO/20% Encapsin/Saline, or acidified 5% Tragacanth. The suspension process may be aided by the use of a glass homogenizer. For intratracheal administration, the animals are anesthetized with inhaled isoflurane and placed in a supine position, the trachea is intubated with a steel gavage needle (1.5 inch, 22 gauge, small ball) or a Penn-Century Microsprayer Aerosolizer (model IA-1B) and 200 ul of dosing solution is delivered. The animals are visually monitored during the recovery process, which typically occurs within two minutes.
# Rats treated with compound or vehicle (15 min-24 hours pretreatment) are exposed to an LPS aerosol (100 ug/ml) for 15 min. Four hours later the rats are euthanized with pentobarbital (100 mg/kg, i.p.) and the airways are lavaged with 5 washes of 5 ml of phosphate buffered saline. The harvested cells are stained (Diffquick) and counted to determine total and differential cell data. In a typical study, macrophages represent 40-70% of the total cells, and polymorphonuclear cells 30-60% of the total cells. Inhibition of neutrophil levels relative to no compound controls is calculated based on the differential counts.
# The assay has varying conditions, such as concentration, pretreat time, form of the compound (crystalline, amorphous, salts, micronised), and a wet or dry application of the compound. The data is obtained as % inhibition using a particular concentration and pretreat time.
row,Compound,inhibition of neutrophilia (neutrophil influx to the lung)
1,"Cc1ccc(C(=O)NC(C)C)cc1-c1nc(N(C)CCN(C)C)nc2c1CNC(=O)N2c1c(F)cccc1F [Example 36, 3-{8-(2,6-difluorophenyl)-2-[[2-(dimethylamino)ethyl](methyl)amino]-7-oxo-5,6,7,8-tetrahydropyrimido[4,5-d]pyrimidin-4-yl}-4-methyl-N-(1-methylethyl)benzamide]",statistically significant inhibition of neutrophilia
2,"Cc1ccc(C(=O)NC(C)C)cc1-c1nc(NCCN(C)C)nc2c1CNC(=O)N2c1c(F)cccc1F [Example 37, 3-(8-(2,6-difluorophenyl)-2-{[2-(dimethylamino)ethyl]amino}-7-oxo-5,6,7,8-tetrahydropyrimido[4,5-d]pyrimidin-4-yl)-4-methyl-N-(1-methylethyl)benzamide]",statistically nonsignificant inhibition of neutrophilia
3,"Cc1ccc(C(=O)Nc2ccc(F)cc2)cc1-c1nc(NC2CCN(C)CC2)nc2c1CNC(=O)N2c1c(F)cccc1F [Example 39, 3-{8-(2,6-difluorophenyl)-2-[(1-methyl-4-piperidinyl)amino]-7-oxo-5,6,7,8-tetrahydropyrimido[4,5-d]pyrimidin-4-yl}-N-(4-fluorophenyl)-4-methylbenzamide]",statistically nonsignificant inhibition of neutrophilia
4,"Cc1ccc(C(=O)NC(C)C)cc1-c1nc(NCCCN(C)C)nc2c1CNC(=O)N2c1c(F)cccc1F [Example 40, 3-(8-(2,6-difluorophenyl)-2-{[3-(dimethylamino)propyl]amino}-7-oxo-5,6,7,8-tetrahydropyrimido[4,5-d]pyrimidin-4-yl)-4-methyl-N-(1-methylethyl)benzamide]",statistically significant inhibition of neutrophilia
5,"Cc1ccc(C(=O)Nc2ccc(F)cc2)cc1-c1nc(NCCCN(C)C)nc2c1CNC(=O)N2c1c(F)cccc1F [Example 42, 3-(8-(2,6-difluorophenyl)-2-{[3-(dimethylamino)propyl]amino}-7-oxo-5,6,7,8-tetrahydropyrimido[4,5-d]pyrimidin-4-yl)-N-(4-fluorophenyl)-4-methylbenzamide]",statistically significant inhibition of neutrophilia
6,"CCN(CC)CCCNc1nc(-c2cc(C(=O)Nc3ccc(F)cc3)ccc2C)c2c(n1)N(c1c(F)cccc1F)C(=O)NC2 [Example 43, 3-[2-{[3-(diethylamino)propyl]amino}-8-(2,6-difluorophenyl)-7-oxo-5,6,7,8-tetrahydropyrimido[4,5-d]pyrimidin-4-yl]-N-(4-fluorophenyl)-4-methylbenzamide]",inactive
7,"CCCNC(=O)c1ccc(C)c(-c2nc(N(C)CCCN(C)C)nc3c2CNC(=O)N3c2c(F)cccc2F)c1 [Example 53, 3-{8-(2,6-difluorophenyl)-2-[[3-(dimethylamino)propyl](methyl)amino]-7-oxo-5,6,7,8-tetrahydropyrimido[4,5-d]pyrimidin-4-yl}-4-methyl-N-propylbenzamide]",statistically nonsignificant inhibition of neutrophilia
8,"Cc1ccc(C(=O)NC(C)C)cc1-c1nc(N2CCC(N3CCCCC3)CC2)nc2c1CNC(=O)N2c1c(F)cccc1F [Example 57, 3-[2-(1,4′-bipiperidin-1′-yl)-8-(2,6-difluorophenyl)-7-oxo-5,6,7,8-tetrahydropyrimido[4,5-d]pyrimidin-4-yl]-4-methyl-N-(1-methylethyl)benzamide]",statistically nonsignificant inhibition of neutrophilia
9,"Cc1ccc(C(=O)NC(C)C)cc1-c1nc(N2CCC(N3CCCC3)CC2)nc2c1CNC(=O)N2c1c(F)cccc1F [Example 60, 3-{8-(2,6-difluorophenyl)-7-oxo-2-[4-(1-pyrrolidinyl)-1-piperidinyl]-5,6,7,8-tetrahydropyrimido[4,5-d]pyrimidin-4-yl}-4-methyl-N-(1-methylethyl)benzamide]",statistically nonsignificant inhibition of neutrophilia; also recorded: inactive
